Laboratory results as given in patent US5942502A, “Method of treating diseases resulting from calcium metabolism disorders” (priority 1998, dated 1999).
“Also recorded” adds a separate entry of the source. Like-named read-outs stand apart in the source and are kept apart here.

What was measured:
[1] = cited from earlier work
[2] = in vivo; cited from earlier work
[3] = Acute toxicity (LD50), single dose; type: in vivo, rat; details: rat, in vivo; single (acute) dose, male rats, at 14 days
Description: LD50 data represent the dose administered resulting in the death of 50% of the test group.

Ovariectomized rats = experiment: Ovariectomized rat model: serum Ca and P, femur dry weight, ash weight and breaking load; type: in vivo, Female Fisher rats; details: for Serum Pi / Breaking load (femur) / Serum Ca / Ash weight (femur) / Dry weight (femur): three times a week for 23 weeks, Mean ± SD; for Serum Pi: OVX 2.6 ± 0.4; for Breaking load (femur): OVX 9.0 ± 0.9; for Serum Ca: OVX 9.7 ± 0.2; for Ash weight (femur): OVX 285 ± 19; for Dry weight (femur): OVX 431 ± 26
Description: Female Fisher rats, 9-10 months old, were ovariectomized and were fed a vitamin D-deficient diet containing 0.45% calcium and 0.3% phosphorus. The rats were given 15IU of vitamin D3 orally once a week throughout this experiment. Four weeks after the surgery, the rats were orally adminstered three times a week for 23 weeks with ST-630 (30, 100 or 300 pmole/kg) or 1α-hydroxyvitamin D3 (100 or 300 pmole/kg).

female beagle dogs = experiment: Chronic dosing toxicity, three months oral; type: in vivo, dog (beagle); details: 0.3 mg/kg orally each day for three months
Description: With respect to chronic dosing, a group of six female beagle dogs were given 0.3 mg/kg of either ST-630 or 1α-hydroxyvitamin D3 orally each day for three months.

[4] = cited from earlier work; remark: listed apart in the source
[5] = compared with 1,25-(OH)2 D3; cited from earlier work
[6] = tested on: postmenopausal osteoporosis; details: cited from earlier work
[7] = tested on: postmenopausal osteoporosis; details: average dose 0.8 μg per day, cited from earlier work
[8] = especially with conventional calcium supplement treatment
[9] = dose response over the doses tested

In the case of C=C1/C(=C\C=C2/CCC[C@]3(C)[C@@H]([C@H](C)CCC(O)C(C)(C)O)CC[C@@H]23)C[C@@H](O)CC1O (stereo partly drawn) [1,24,25-trihydroxyvitamin D3], the hypercalcemia ([1]; in vivo) is given as “causing hypercalcemia”.

In the case of C=C1/C(=C\C=C2/CCC[C@]3(C)[C@@H]([C@H](C)/C=C/[C@@H](C)C(C)(C)O)CC[C@@H]23)C[C@@H](O)C[C@@H]1O [1α,25-dihydroxy-24-epi-vitamin D2], the intestinal calcium transport [2] is listed as “increasing intestinal calcium transport”, the “mineralization of new bone” value [2] is listed as “stimulating the mineralization of new bone” and the “mobilizing calcium from bone” value [2] is listed as “minimal effectiveness”.

For C=C1/C(=C\C=C2/CCC[C@]3(C)[C@@H]([C@H](C)/C=C/[C@H](C)C(C)(C)O)CC[C@@H]23)C[C@@H](O)C[C@@H]1O [1α,25-dihydroxyvitamin D2], the hypercalcemia [1, 8] is given as “causing hypercalcemia”.

For C=C1/C(=C\C=C2/CCC[C@]3(C)[C@@H]([C@H](C)/C=C/[C@H](C)C(C)C)CC[C@@H]23)C[C@@H](O)C[C@@H]1O [1α-hydroxyvitamin D2], the hypercalcemia [1, 8] is given as “causing hypercalcemia”.

In the case of C=C1/C(=C\C=C2/CCC[C@]3(C)[C@@H]([C@H](C)CCCC(C)C)CC[C@@H]23)C[C@@H](O)C[C@@H]1O [1α-hydroxyvitamin D3, reference compound], the LD50 at 336 h [3] is reported as 0.2 mg/kg, the “Serum Pi” value (Ovariectomized rats; 100 pmole/kg p.o.) is reported as 3.8 ± 0.3 mg/100 ml and the “Breaking load (femur)” value (Ovariectomized rats; 100 pmole/kg p.o.) is reported as 9.3 ± 0.6 kg. For the same compound, the “Serum Ca” value (Ovariectomized rats; 100 pmole/kg p.o.) was 9.9 ± 0.2 mg/100 ml, the “Ash weight (femur)” value (Ovariectomized rats; 100 pmole/kg p.o.) was 303 ± 29 mg and the “Dry weight (femur)” value (Ovariectomized rats; 100 pmole/kg p.o.) was 454 ± 42 mg. The “Serum Pi” value (Ovariectomized rats; 300 pmole/kg p.o.) was 4.3 ± 0.4 mg/100 ml, the “Breaking load (femur)” value (Ovariectomized rats; 300 pmole/kg p.o.) was 9.5 ± 1.1 kg and the “Serum Ca” value (Ovariectomized rats; 300 pmole/kg p.o.) was 10.3 ± 0.3 mg/100 ml. For the same compound, the “Ash weight (femur)” value (Ovariectomized rats; 300 pmole/kg p.o.) was 308 ± 33 mg, the “Dry weight (femur)” value (Ovariectomized rats; 300 pmole/kg p.o.) was 461 ± 47 mg and the serum calcium level (Ovariectomized rats; [9]) was “increased dose-dependently”. The serum phosphorus level (Ovariectomized rats; [9]) was “increased dose-dependently”, the deaths (female beagle dogs) was “two of six dogs” and the “safe dose used for human administration” value ([4]; humans) was 1 µg/day.

In the case of C=C1/C(=C\C=C2/CCC[C@]3(C)[C@@H]([C@H](C)CCC(F)(F)C(C)(C)O)CC[C@@H]23)C[C@@H](O)C[C@@H]1O [24,24-difluoro-1,25-(OH)2 D3], the “activity relative to 1,25-(OH)2 D3” value [5] is given as “at least as great if not greater activity”.

For C=C1/C(=C\C=C2/CCC[C@]3(C)[C@@H]([C@H](C)CCCC(C)(C)O)CC[C@@H]23)C[C@@H](O)C[C@@H]1O [calcitriol, 1α,25-dihydroxyvitamin D3], the hypercalcemia ([6]; 0.5 μg per day (0.25 μg orally twice a day), average dietary calcium intake 800 mg) is listed as “not accompanied by hypercalcemia of any severity; also recorded: limited potential to induce hypercalcemia”, the “rate of new vertebral fractures” value ([6]; 0.5 μg per day for three years, versus supplemental calcium 1 gram daily) is listed as “significant reduction” and the Hypercalciuria incidence [7] is listed as “all subjects”. For the same compound, the bone formation [7] was “no effect on bone formation”, the bone resorption [7] was “reducing bone resorption” and the calcium absorption [7] was “increasing calcium absorption”. The hypercalcemia incidence [7] was 11 of 12 subjects, the bone loss ([7]; women with postmenopausal osteoporosis) was “reduced bone loss” and the “dosage "window" or tolerance between effectiveness and toxicity” value ([4]; in view of Oloia et al and Tilyard et al) was “relatively small”. The hypercalcemia [1, 8] was “causing hypercalcemia”.

In the case of C=C1CC[C@H](O)C/C1=C/C=C1\CCC[C@]2(C)[C@@H]([C@H](C)CCCC(C)(C)O)CC[C@@H]12 [hydrate of 25-hydroxyvitamin D3, 25-hydroxyvitamin D3], the hypercalcemia [1, 8] is given as “danger of hypercalcemia”.
